# Source: patent publication US20140170236A1, “USE OF PHOSPHORIC ACID” (priority 2010, published 2014)
# Read-outs that look alike come from different tables or passages of the source.
# Key:
# coronary condition = details: Example 1 subject; after twelve months of 2.5 mL daily (183 mg phosphorus); baseline stress test positive
# Method: (§1) The cardiac interventionist prescribed the same kind of drug therapy as above. A stress test was conducted at this time to provide a baseline for comparing with possible future stress tests.
# (§2) The subject then took a 2.5 mL daily dose of a 23.8% (mg/L) solution of phosphoric acid composition comprising 183 mg of phosphorus for a period of twelve months. This represented 26% of the RDA of phosphorous (700 mg) for an adult.
# calcified plaque = details: Example 1 subject; two years after angiogram that showed extensive calcified plaque
# Method: as §1, §2
# [1] = system: soft plaque in the arteries; details: Example 2 subject; at the time of the third CT calcium scan; no CTA scan before treatment
# Source text: At the same time the most recent CT calcium scan was done, a Computed Tomography Angiography (CTA) scan was also done with contrast dye to determine the amount of soft plaque in the arteries.
# [2] = Example 1 subject; 2.5 mL daily (183 mg phosphorus)
# [3] = Method: (§3) The risk assessment assumed that the calcified plaque would increase at the usual anticipated rate of approximately 15% to 30% a year. They took a daily dose of 2.5 ml of a 23.8% (mg/L) phosphoric acid in water, (183 mg of phosphorus) for a period of six months. […] A third CT calcium scan was performed approximately three months after increasing the dose. This was eight months and twenty days after the initial dosing with phosphoric acid.
# [4] = system: calcified plaque in the coronary arteries
# Source text: A coronary computed tomography (CT) calcium scan is a test to assess the build up of plaque (calcification) in the coronary arteries. Because calcium is a component of hard plaque and is a marker of coronary artery disease (CAD) such a scan can be used as a diagnostic tool for CAD. The amount of calcium detected on a CT scan, expressed as a calcium score, reflects the degree and extent of calcium deposits on the walls of coronary arteries. Once calcified plaque begins to accumulate on arterial walls the amount deposited increases logarithmically at a rate of 15% to 30% a year.
# The calcium score is an indicator of potential heart risk. […] A higher score is indicative of an increased risk and cardiologists express concern of the possibility of a heart incident at various levels but especially at 400 or above. Some treatments such as the product Crestor®, claim to slow the rate of deposition of plaque.
# as §2, §3
# The subject takes Famotadine for acid reflux and continues to smoke “one or two cigars a week.” The subject began taking a daily dose of 3.75 ml of a 23.8% (mg/L) phosphoric acid solution.
# They currently take lipid lowering medication. They began taking 3.75 ml of a 23.8% (mg/L) phosphoric acid solution shortly after […] CT Calcium Scan.
# Their medications includes: Benicar®, Crestor®, Niaspan®, and Lovaza®. Two and a half months after having the first Calcium Score assessment they began taking a daily dose of 3.75 ml of a 23.8% (mg/L) phosphoric acid solution. […] Note, cadaver studies consistently indicate that smokers are more prone to advanced artery disease.
smiles,measurement,setting,value
O=P(O)(O)O [phosphoric acid],second stress echo test result,coronary condition,negative
same,calcified plaque on CT Angiogram,calcified plaque,no calcified plaque except in the area of the stent
same,soft plaque score,[1],0
same,bone density on bone scan,[2],normal bone density
same,side-effects related to the phosphoric acid composition,"[3]; Example 1 subject, 2.5 mL daily (183 mg phosphorus)",no side-effects
same,side effects at the higher dose level,"[3]; Example 2 subject, daily dose 3.75 ml (274 mg phosphorus)",no side effects
same,% Whose Ca Score Increased,"[4]; All, sample size 5",20%
same,calcium score,"[4]; Example 1 subject (man, stent), 2.5 mL daily of 23.8% (mg/L) solution, 183 mg phosphorus, after one year, no base score",29
same,probability of a heart attack in the next 10 years,"[4]; Example 1 subject, after one year of 2.5 mL daily (183 mg phosphorus)",10%
same,calcium score,"[4]; Example 2 subject, initial score 181, 2.5 ml daily (183 mg phosphorus), second CT scan at six months",181
same,calcium score,"[4]; Example 2 subject, initial score 181, third scan eight months and twenty days after initial dosing, about three months after increase to 3.75 ml (274 mg phosphorus)",179
same,calcium score,"[4]; Example 3 subject, initial score 193, 3.75 ml daily of 23.8% (mg/L) solution, approximately six months",122
same,reduction of calcium score,"[4]; Example 3 subject, 193 to 122, approximately six months of 3.75 ml daily",37%
same,calcium score,"[4]; Example 4 subject, initial score 85, 3.75 ml of 23.8% (mg/L) solution, eight months",83
same,calcium score lower than the initial score,"[4]; Example 4 subject, 85 to 83, eight months",2 points
same,annual rate of increase of calcium score,[4]; Example 5 subject,13.4%
same,calcium score,"[4]; Example 5 subject (heavy smoker), initial score 117, 3.75 ml daily of 23.8% (mg/L) solution, eight months after start",130
same,increase of calcium score,"[4]; Example 5 subject, 117 to 130",11%
same,% Whose Ca Score Increased,"[4]; Non-Smokers, sample size 4",0%
same,% Whose Ca Score Increased,"[4]; Smokers, sample size 1",100%
